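A five-concentration, 48-hour dose response in 96-well plates underlies each endpoint, interpolated linearly between surrounding concentrations. Here, GI50 denotes the concentration required for 50% inhibition of growth.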 Activity calls are given as the source filed them. No stated cut-off is given here; in the data, active = GI50 up to about 1.1 µM and inactive = higher. Where only a bound is given, the exact number is not on record here.

Among the test systems are DU-145; EKVX; HOP-92; HCT-15; SN12C; KM12; SW-620; BT-549; NCI-H522; SNB-75; SK-OV-3; UACC-62; LOX IMVI; NCI-H23; TK-10; OVCAR-8; ACHN; Hs-578T; NCI-H226; A498.
Common to all, as to test: DTP human tumour cell line panel, 48 h

What is called GI50 is the concentration giving 50% growth inhibition. `Cc1cccc2c1Oc1cc(Cl)ccc1C2NC(=O)CCN1CCOCC1` (centres undefined): the GI50 was > 100 µM (inactive) with DU-145; > 100 µM (inactive) with EKVX; 18.1 µM (inactive) with HOP-92; > 100 µM in the assay on HCT-15; > 100 µM (inactive) in the assay on SN12C; > 100 µM (inactive) with KM12. Also, the GI50 in the assay on SW-620 is > 100 µM (inactive); with BT-549 it was > 100 µM (inactive); in the assay on NCI-H522 it was > 100 µM (inactive); in the assay on SNB-75, 21.8 µM (inactive); in the assay on SK-OV-3, > 100 µM (inactive); in the assay on UACC-62, 50.1 µM (inactive). Also, the GI50 in the assay with LOX IMVI, with NCI-H23, in the assay with TK-10 and with OVCAR-8 was > 100 µM (inactive) throughout.
In the case of `Cc1ccc(S(=O)(=O)NC(=O)NS(=O)(=O)O)cc1`, the GI50 was > 100 µM (inactive) in the assay on DU-145; > 100 µM (inactive) in the assay on HOP-92; > 100 µM in the assay with HCT-15; > 100 µM (inactive) with SN12C; > 100 µM (inactive) in the assay with ACHN; > 100 µM (inactive) with KM12. Also, the GI50 with SW-620, in the assay on BT-549, with NCI-H522, in the assay with SNB-75, with SK-OV-3 and in the assay with UACC-62 was > 100 µM (inactive) throughout. Further, the GI50 with LOX IMVI, in the assay on NCI-H23, with Hs-578T, in the assay on TK-10 and in the assay with OVCAR-8 was > 100 µM (inactive) throughout.
As for `c1ccc(CNCCCCNCCCNCc2ccccc2)cc1`, the GI50 is 23.6 µM (inactive) in the assay on DU-145; 25.6 µM (inactive) in the assay on EKVX; 11.8 µM (inactive) in the assay with HOP-92; 19 µM in the assay on HCT-15; 19.8 µM (inactive) in the assay on SN12C; 15.7 µM (inactive) in the assay with ACHN. The GI50 is 20 µM (inactive) in the assay with KM12; 15.8 µM (inactive) in the assay with SW-620; 16.3 µM (inactive) in the assay on BT-549; 15.2 µM (inactive) with NCI-H522; 19.4 µM (inactive) in the assay with SNB-75; > 100 µM (inactive) in the assay on SK-OV-3. Further, the GI50 in the assay with UACC-62 is 16.6 µM (inactive); in the assay with LOX IMVI, 17.7 µM (inactive); in the assay on NCI-H23 it was 22 µM (inactive); in the assay on Hs-578T, 14 µM (inactive); in the assay on NCI-H226, 20.2 µM (inactive); in the assay with TK-10, 19.8 µM (inactive). In the assay with OVCAR-8, the GI50 was > 10 µM (inactive).
In the case of `O=C(O)c1ccccc1C(=O)Nn1cnnc1`, the GI50 was > 100 µM (inactive) in the assay with DU-145; > 100 µM (inactive) in the assay on EKVX; > 100 µM (inactive) in the assay on HOP-92; > 100 µM in the assay on HCT-15; > 100 µM (inactive) in the assay on SN12C; > 100 µM (inactive) with ACHN. The GI50 in the assay with KM12, with SW-620, in the assay with BT-549, in the assay with NCI-H522, in the assay with SNB-75 and in the assay with SK-OV-3 was > 100 µM (inactive) throughout. The GI50 in the assay with UACC-62, with LOX IMVI, with NCI-H23, with TK-10 and in the assay with OVCAR-8 was > 100 µM (inactive) throughout.
As to `O=C(Nc1c(Cl)cc([N+](=O)[O-])cc1Cl)C(=O)C1C(=O)NC(=S)NC1=O`, the GI50 was > 100 µM (inactive) in the assay with EKVX; > 100 µM (inactive) with HOP-92; > 100 µM in the assay on HCT-15; > 100 µM (inactive) in the assay with SN12C; > 100 µM (inactive) in the assay on ACHN; > 100 µM (inactive) with KM12. In addition, the GI50 with SW-620, in the assay with BT-549, with NCI-H522, in the assay on SNB-75, with SK-OV-3 and in the assay with UACC-62 was > 100 µM (inactive) in each case. Besides, the GI50 in the assay on LOX IMVI, in the assay on NCI-H23, in the assay with Hs-578T, with A498, in the assay on NCI-H226 and in the assay on TK-10 was > 100 µM (inactive) throughout. The GI50 with OVCAR-8 was > 100 µM (inactive).
Regarding `CC(C)[C@]12O[C@H]1[C@@H]1O[C@]13[C@]1(O[C@H]1C[C@H]1C4=C(CC[C@@]13C)C(=O)OC4)[C@@H]2O` [TRIPTOLIDE], the GI50 in the assay with DU-145 is 0.0244 µM (active); with EKVX, 0.021 µM (active); with HOP-92 it was 0.023 µM (active); in the assay on HCT-15 it was 0.014 µM; with SN12C it was 0.00861 µM (active); in the assay on ACHN, 0.00679 µM (active). For the same molecule, the GI50 was 0.0274 µM (active) in the assay with KM12; 0.0141 µM (active) with SW-620; 0.00881 µM (active) in the assay with NCI-H522; 0.0101 µM (active) in the assay on SNB-75; 0.0474 µM (active) in the assay on SK-OV-3; 0.00421 µM (active) with UACC-62. The GI50 with LOX IMVI was 0.00514 µM (active); with NCI-H23 it was 0.00322 µM (active); in the assay on Hs-578T, 0.015 µM (active); in the assay with A498 it was 0.018 µM (active); with NCI-H226, 0.0216 µM (active); with TK-10, < 0.014 µM (active). The GI50 with OVCAR-8 was 0.0203 µM (active).
Regarding `COc1cc(N2C(=O)C(=O)C3(CCCCC3)C2=O)cc(OC)c1OC`, the GI50 was > 100 µM (inactive) in the assay on DU-145; > 100 µM (inactive) in the assay on EKVX; > 100 µM in the assay with HCT-15; > 100 µM (inactive) with SN12C; > 100 µM (inactive) with ACHN; > 100 µM (inactive) in the assay on KM12. The GI50 in the assay with SW-620, with BT-549, in the assay with NCI-H522, with SNB-75, with SK-OV-3 and in the assay with UACC-62 was > 100 µM (inactive) throughout. Further, the GI50 in the assay on LOX IMVI, in the assay with NCI-H23, in the assay with NCI-H226, in the assay with TK-10 and in the assay with OVCAR-8 was > 100 µM (inactive) each time.
Consider `CC(NC(=O)C(C)C(=O)NCc1ccc(C(F)(F)F)cc1)C(N)=O` (centres undefined), for which the GI50 with DU-145 is > 100 µM (inactive); in the assay on EKVX it was > 100 µM (inactive); with HOP-92, > 100 µM (inactive); with HCT-15 it was > 100 µM; with SN12C it was > 100 µM (inactive); in the assay with ACHN, > 100 µM (inactive). The GI50 with KM12 is > 100 µM (inactive); with SW-620, > 100 µM (inactive); with BT-549 it was 84.7 µM (inactive); in the assay on NCI-H522 it was 34.9 µM (inactive); in the assay with SNB-75, 48.1 µM (inactive); in the assay on SK-OV-3 it was > 100 µM (inactive). Also, the GI50 in the assay on UACC-62, in the assay on NCI-H23, in the assay on Hs-578T, with NCI-H226 and in the assay on OVCAR-8 was > 100 µM (inactive) throughout.
As to `Cc1cc(S(=O)(=O)Nc2nc3ccsc3c(=O)n2N)c(S)cc1Cl`, the GI50 in the assay on DU-145 was > 100 µM (inactive); in the assay on EKVX, > 100 µM (inactive); in the assay on HCT-15 it was 50.7 µM; with SN12C, > 100 µM (inactive); with ACHN, 56.9 µM (inactive); in the assay with KM12, 80.7 µM (inactive). In addition, the GI50 with SW-620 was > 100 µM (inactive); in the assay on BT-549 it was > 100 µM (inactive); with NCI-H522, 44 µM (inactive); with SNB-75 it was > 100 µM (inactive); in the assay with SK-OV-3, > 100 µM (inactive); in the assay on UACC-62, 38.7 µM (inactive). The GI50 in the assay on LOX IMVI is 78.9 µM (inactive); in the assay with NCI-H23, > 100 µM (inactive); in the assay on NCI-H226, 34.6 µM (inactive); in the assay on TK-10 it was > 100 µM (inactive); in the assay on OVCAR-8, > 100 µM (inactive).
Turning to `CCN(CCC#N)C(=O)Nc1ccccc1`, the GI50 in the assay on DU-145 is > 100 µM (inactive); with EKVX it was > 100 µM (inactive); in the assay on HOP-92, > 100 µM (inactive); in the assay on HCT-15 it was > 100 µM; in the assay with SN12C, > 100 µM (inactive); with ACHN, > 100 µM (inactive). Moreover, the GI50 with KM12 was 86.7 µM (inactive); with SW-620 it was > 100 µM (inactive); in the assay on BT-549, > 100 µM (inactive); in the assay with NCI-H522, > 100 µM (inactive); in the assay with SNB-75, 93.1 µM (inactive); in the assay on SK-OV-3 it was > 100 µM (inactive). Besides, the GI50 in the assay with UACC-62, in the assay with LOX IMVI, with NCI-H23, in the assay with NCI-H226, in the assay with TK-10 and in the assay with OVCAR-8 was > 100 µM (inactive) each time.
Consider `NC1OC(COC(=O)c2ccccc2)C(O)C(OC(=O)c2ccccc2)C1OC(=O)c1ccccc1` (centres undefined), for which the GI50 with DU-145 is 40.1 µM (inactive); in the assay with EKVX it was 21.3 µM (inactive); in the assay with HOP-92, 35.2 µM (inactive); with HCT-15, 32.7 µM; in the assay with SN12C, 24.3 µM (inactive); with ACHN it was 19.3 µM (inactive). Besides, the GI50 in the assay on SW-620 is 19 µM (inactive); in the assay with BT-549 it was 20.7 µM (inactive); with NCI-H522 it was 23.9 µM (inactive); in the assay on SNB-75, 18.6 µM (inactive); in the assay on SK-OV-3 it was 41.3 µM (inactive); in the assay on UACC-62, 14.1 µM (inactive). Further, the GI50 with LOX IMVI was 14.4 µM (inactive); in the assay on NCI-H23 it was 25.4 µM (inactive); in the assay on Hs-578T, 15.1 µM (inactive); with NCI-H226, 20.8 µM (inactive); in the assay with TK-10, 61.9 µM (inactive); in the assay with OVCAR-8 it was 17.9 µM (inactive).
